# From PubChem BioAssay AID180 (DTP/NCI, 2004)
# Several values for one entry are separate records, joined by “and”; a condition that tells them apart may be missing. Identical values can stand only once.
# Tested on: BDF1 mice, Adenocarcinoma 755 s.c., tumor weight T/C
# Experiment: NCI In Vivo Anticancer Drug Screen. Data for tumor model Adenocarcinoma 755 (subcutaneous) in B6D2F1 (BDF1) mice
# Conditions: endpoint: mean tumor weight, higher = larger tumour
# In short: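 Values express treated (T) relative to vehicle-dosed control (C) animals, based on survival or tumour size measured after compound treatment of mice bearing a transplanted tumour.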
# [1] = dose: 125.0 mg/kg/injection, schedule: Q01DX011 (ip), vehicle: methylcellulose (MC)
# [2] = dose: 250.0 mg/kg/injection, schedule: Q01DX011 (ip), vehicle: methylcellulose (MC)
# [3] = dose: 5.0 mg/kg/injection, schedule: Q01DX011 (ip), vehicle: carboxymethylcellulose (CMC)
# [4] = dose: 62.5 mg/kg/injection, schedule: Q01DX011 (ip), vehicle: methylcellulose (MC)
# [5] = dose: 75.0 mg/kg/injection, schedule: Q01DX011 (ip), vehicle: methylcellulose (MC)
smiles,measurement,setting,value
CC1NC(=O)NC1CCCCCC(=O)O (stereo not drawn),T/C,"dose: 89.06 mg/kg/injection, schedule: Q01DX011 (ip), vehicle: carboxymethylcellulose (CMC)",122 % of control
same,T/C,"dose: 125.0 mg/kg/injection, schedule: Q01DX011 (ip), vehicle: carboxymethylcellulose (CMC)",75 % of control
same,T/C,"dose: 178.13 mg/kg/injection, schedule: Q01DX011 (ip), vehicle: carboxymethylcellulose (CMC)",83 % of control
same,T/C,"dose: 250.0 mg/kg/injection, schedule: Q01DX011 (ip), vehicle: carboxymethylcellulose (CMC)",49 % of control
same,T/C,"dose: 356.25 mg/kg/injection, schedule: Q01DX011 (ip), vehicle: carboxymethylcellulose (CMC)",90 % of control
same,T/C,"dose: 500.0 mg/kg/injection, schedule: Q01DX011 (ip), vehicle: carboxymethylcellulose (CMC)",68 % of control
same,T/C,"dose: 712.5 mg/kg/injection, schedule: Q01DX011 (ip), vehicle: carboxymethylcellulose (CMC)",47 % of control
same,T/C,"dose: 1000.0 mg/kg/injection, schedule: Q01DX011 (ip), vehicle: carboxymethylcellulose (CMC)",69 % of control
CSc1ncc(Br)c(Nc2ccccc2C)n1,T/C,"dose: 15.0 mg/kg/injection, schedule: Q01DX011 (ip), vehicle: methylcellulose (MC)",94 % of control
same,T/C,"dose: 31.0 mg/kg/injection, schedule: Q01DX011 (ip), vehicle: methylcellulose (MC)",87 % of control
same,T/C,"dose: 62.0 mg/kg/injection, schedule: Q01DX011 (ip), vehicle: methylcellulose (MC)",110 % of control
same,T/C,[1],117 % of control
same,T/C,[2],107 % of control
CCCC(=O)OCC1OC(n2cnc3c(=S)nc[nH]c32)C(OC(=O)CCC)C1OC(=O)CCC (stereo not drawn),T/C,"dose: 3.0 mg/kg/injection, schedule: Q01DX011 (ip), vehicle: other",48 % of control
same,T/C,"dose: 3.12 mg/kg/injection, schedule: Q01DX011 (ip), vehicle: other",75 % of control
same,T/C,"dose: 6.0 mg/kg/injection, schedule: Q01DX011 (ip), vehicle: other",16 % of control
same,T/C,"dose: 6.25 mg/kg/injection, schedule: Q01DX011 (ip), vehicle: other",13 % of control
same,T/C,"dose: 12.0 mg/kg/injection, schedule: Q01DX011 (ip), vehicle: other",6 % of control
same,T/C,"dose: 12.5 mg/kg/injection, schedule: Q01DX011 (ip), vehicle: other",4 % of control
Ic1ncnc2nc[nH]c12,T/C,"dose: 2.5 mg/kg/injection, schedule: Q01DX011 (ip), vehicle: carboxymethylcellulose (CMC)",90 % of control
same,T/C,"dose: 3.2 mg/kg/injection, schedule: Q01DX011 (oral), vehicle: carboxymethylcellulose (CMC)",78 % of control
same,T/C,[3],90 % of control
same,T/C,"dose: 7.5 mg/kg/injection, schedule: Q01DX011 (oral), vehicle: carboxymethylcellulose (CMC)",41 % of control
same,T/C,"dose: 15.0 mg/kg/injection, schedule: Q01DX011 (oral), vehicle: carboxymethylcellulose (CMC)",14 % of control
same,T/C,"dose: 62.5 mg/kg/injection, schedule: Q01DX011 (ip), vehicle: carboxymethylcellulose (CMC)",21 % of control
CC(=O)[C@H]1CC[C@H]2[C@@H]3C[C@H](C)C4=CC(=O)CC[C@]4(C)[C@H]3C(=O)C[C@]12C,T/C,"dose: 25.0 mg/kg/injection, schedule: Q01DX011 (sc), vehicle: steriod suspending solution",65 % of control
same,T/C,"dose: 50.0 mg/kg/injection, schedule: Q01DX011 (sc), vehicle: steriod suspending solution",78 % of control
same,T/C,"dose: 200.0 mg/kg/injection, schedule: Q01DX011 (sc), vehicle: steriod suspending solution",35 % of control and 43 % of control
same,T/C,"dose: 400.0 mg/kg/injection, schedule: Q01DX011 (sc), vehicle: steriod suspending solution",21 % of control
same,T/C,"dose: 800.0 mg/kg/injection, schedule: Q01DX011 (sc), vehicle: steriod suspending solution",30 % of control
COc1cc(C=O)cc(O)c1O,T/C,[4],72 % of control
same,T/C,[1],58 % of control
same,T/C,[2],40 % of control
CCOC(=O)C(Cc1ccc(N(CCCl)CCCl)cc1)NP1(=O)NCCCO1 (stereo not drawn),T/C,"dose: 36.0 mg/kg/injection, schedule: Q01DX011 (ip), vehicle: saline",21 % of control
O=C1NC(=O)C2(CCCc3ccc(N(CCCl)CCCl)cc32)N1 (stereo not drawn),T/C,"dose: 3.5 mg/kg/injection, schedule: Q01DX011 (ip), vehicle: carboxymethylcellulose (CMC)",86 % of control
same,T/C,"dose: 3.5 mg/kg/injection, schedule: Q01DX011 (ip), vehicle: other",80 % of control
same,T/C,"dose: 7.0 mg/kg/injection, schedule: Q01DX011 (ip), vehicle: carboxymethylcellulose (CMC)",83 % of control
same,T/C,"dose: 7.0 mg/kg/injection, schedule: Q01DX011 (ip), vehicle: other",112 % of control
same,T/C,"dose: 14.0 mg/kg/injection, schedule: Q01DX011 (ip), vehicle: carboxymethylcellulose (CMC)",56 % of control
same,T/C,"dose: 14.0 mg/kg/injection, schedule: Q01DX011 (ip), vehicle: other",51 % of control
same,T/C,"dose: 28.0 mg/kg/injection, schedule: Q01DX011 (ip), vehicle: carboxymethylcellulose (CMC)",30 % of control
same,T/C,"dose: 28.0 mg/kg/injection, schedule: Q01DX011 (ip), vehicle: other",56 % of control
same,T/C,"dose: 55.0 mg/kg/injection, schedule: Q01DX011 (ip), vehicle: carboxymethylcellulose (CMC)",2 % of control
same,T/C,"dose: 55.0 mg/kg/injection, schedule: Q01DX011 (ip), vehicle: other",13 % of control
C#C[C@]1(O)CC[C@H]2[C@@H]3CCc4cc(O)ccc4[C@H]3CC[C@@]21C,T/C,"dose: 85.0 mg/kg/injection, schedule: Q01DX011 (sc), vehicle: steriod suspending solution",51 % of control and 53 % of control
same,T/C,"dose: 170.0 mg/kg/injection, schedule: Q01DX011 (sc), vehicle: steriod suspending solution",38 % of control and 43 % of control
same,T/C,"dose: 340.0 mg/kg/injection, schedule: Q01DX011 (sc), vehicle: steriod suspending solution",37 % of control and 43 % of control
same,T/C,"dose: 680.0 mg/kg/injection, schedule: Q01DX011 (sc), vehicle: steriod suspending solution",23 % of control
Nc1nc2c(nc(Br)n2C2OC(CO)C(O)C2O)c(=O)[nH]1 (stereo not drawn),T/C,"dose: 30.0 mg/kg/injection, schedule: Q01DX011 (ip), vehicle: carboxymethylcellulose (CMC)",82 % of control
same,T/C,"dose: 60.0 mg/kg/injection, schedule: Q01DX011 (ip), vehicle: carboxymethylcellulose (CMC)",43 % of control
same,T/C,"dose: 120.0 mg/kg/injection, schedule: Q01DX011 (ip), vehicle: carboxymethylcellulose (CMC)",17 % of control
c1ccc(CNc2ncnc3[nH]ncc23)cc1,T/C,"dose: 4.0 mg/kg/injection, schedule: Q01DX011 (ip), vehicle: carboxymethylcellulose (CMC)",83 % of control
same,T/C,"dose: 8.0 mg/kg/injection, schedule: Q01DX011 (ip), vehicle: carboxymethylcellulose (CMC)",69 % of control
same,T/C,"dose: 16.0 mg/kg/injection, schedule: Q01DX011 (ip), vehicle: carboxymethylcellulose (CMC)",22 % of control
same,T/C,"dose: 31.25 mg/kg/injection, schedule: Q01DX011 (ip), vehicle: carboxymethylcellulose (CMC)",54 % of control
O=C(Nc1ccc([N+](=O)[O-])cc1)Nc1ccc([N+](=O)[O-])cc1 (tested in a mixture with another compound),T/C,"dose: 175.0 mg/kg/injection, schedule: Q01DX011 (ip), vehicle: methylcellulose (MC)",57 % of control and 72 % of control
same,T/C,"dose: 500.0 mg/kg/injection, schedule: Q01DX011 (ip), vehicle: methylcellulose (MC)",27 % of control and 45 % of control
Cc1cnc2nc(N)nc(N)c2n1,T/C,"dose: 50.0 mg/kg/injection, schedule: Q01DX011 (ip), vehicle: carboxymethylcellulose (CMC)",67 % of control
same,T/C,"dose: 75.0 mg/kg/injection, schedule: Q01DX011 (ip), vehicle: carboxymethylcellulose (CMC)",33 % of control
Nc1nc(SCc2ccc(Br)cc2)c2ncn(C3OC(CO)C(O)C3O)c2n1 (stereo not drawn),T/C,"dose: 6.0 mg/kg/injection, schedule: Q01DX011 (ip), vehicle: methylcellulose (MC)",80 % of control
same,T/C,"dose: 25.0 mg/kg/injection, schedule: Q01DX011 (ip), vehicle: methylcellulose (MC)",32 % of control
same,T/C,"dose: 30.0 mg/kg/injection, schedule: Q01DX011 (ip), vehicle: methylcellulose (MC)",41 % of control
same,T/C,[5],5 % of control
Nc1nc(SCc2cccc([N+](=O)[O-])c2)c2[nH]cnc2n1,T/C,"dose: 37.5 mg/kg/injection, schedule: Q01DX011 (ip), vehicle: methylcellulose (MC)",41 % of control
same,T/C,[5],8 % of control
same,T/C,"dose: 150.0 mg/kg/injection, schedule: Q01DX011 (ip), vehicle: methylcellulose (MC)",3 % of control
same,T/C,"dose: 300.0 mg/kg/injection, schedule: Q01DX011 (ip), vehicle: methylcellulose (MC)",1 % of control
S=c1nc[nH]c2c1ncn2C1CCCCO1 (stereo not drawn),T/C,[3],29 % of control
same,T/C,"dose: 10.0 mg/kg/injection, schedule: Q01DX011 (ip), vehicle: carboxymethylcellulose (CMC)",16 % of control
CCCn1cnc2c(SCc3ccc(Br)cc3)nc(N)nc21,T/C,"dose: 7.8 mg/kg/injection, schedule: Q01DX011 (ip), vehicle: methylcellulose (MC)",58 % of control
same,T/C,"dose: 15.6 mg/kg/injection, schedule: Q01DX011 (ip), vehicle: methylcellulose (MC)",57 % of control
same,T/C,"dose: 31.25 mg/kg/injection, schedule: Q01DX011 (ip), vehicle: methylcellulose (MC)",20 % of control
same,T/C,[4],21 % of control and 23 % of control
